Measured values as given in patent US10195147B1, “Dry powder compositions with magnesium stearate” (OTITOPIC INC., priority 2017, dated 2019).
“And” between values parts separate entries of the source, which are not always exact repeats. Identical values can stand only once.

What was measured:
Assay type in all cases: physicochemical
[1] = Colloid-probe atomic force microscopy, force of cohesion; conditions: five drug probes per formulation against smooth crystalline aspirin surface
Excerpt: Colloid-probe atomic force microscopy studies (AFM) was used to measure the cohesive surface interfacial forces (FIG. 6). Five individual particles from each of powder formulation was attached to tipless cantilevers. These were designated as drug probes, which were then interacted with a smooth surface of crystalline aspirin. In this way, it was possible to measure the force of cohesion of the particles of the different formulations (FIG. 6), which followed the following rank order: […]

[2] = Particle size distribution by Spraytec using low resistance device; conditions: 90 L/min, 2.7 second actuation, 5 tests
Protocol: Particle size distribution of ASA/MgST dry powder composition with 0.5%, 1%, 5%, and 10% w/w MgST, spray-dried Aspirin 85%/Leucine 15% Formulation (036 or 36)>Aspirin 95%/Leucine 5% Formulation (046 or 46), and micronized ASA were measured by Spraytec using low resistance device, at 90 L/min flow rate with 2.7 second actuation time with a step of device/mouthpiece/USP/throat/IC/DUSA, and 5 tests for each composition (Table 5E).

[3] = NGI data of the NGI v. Spraytec comparison; conditions: Table 5F

CC(=O)Oc1ccccc1C(=O)O [Micronized ASA, acetylsalicylic acid]
force of cohesion, rank order [1]: >ASA co-micronised with 0.5% magnesium stearate
% V < 5 μm [2]: 54.7 (3.15) %
% V < 10 μm [2]: 88.99 (2.05) %
Dv(10) [2]: 1.9 (0.08) μm
Dv(50) [2]: 4.63 (0.24) μm and 4.62 (0.24) μm
Dv(90) [2]: 10.32 (0.65) μm
NGI FPF [3]: 20.71%
NGI MMAD [3]: 4.86 μm
